Values after ≈ are worked out from the molar mass of the structure shown.
Tests used:
[1] = tested on: C3H mammary model; conditions: cited from earlier work
[2] = tested on: PI3K; conditions: cited from earlier work
[3] = tested on: H-157; experiment: MTS cell proliferation assay, H-157; assay type: cell-based, human; conditions: three days of treatment
Procedure: (§1) A549 (human non-small cell lung cancer) and H-157 cell lines were purchased from American Type Culture Collection (ATCC) (Rockville, Md.). Cells were cultured in RPMI Medium 1640 containing 10% fetal bovine serum (FBS) in a 37° C. incubator containing 5% CO2. All cell culture reagents were purchased from Gibco-BRL (Grand Island, N.Y.). Cells were plated in 96-well culture plates at about 3000 cells per well. One day following plating, water-soluble drug-polymer conjugates or the vehicle controls were added to cells. Proliferation assays were performed three days post initiation of treatment. For the non-radioactive cell proliferation assay, viable cell densities were determined by measuring metabolic conversion (by viable cells) of the dye MTS tatrazolium dye, a cell proliferation assay known by one of skill in the art (MTS assay), a previously established cell proliferation assay. The assay was performed using assay kit purchased from Promega Corp. (Madison, Wis.). The assay plates were incubated for 1-2 hours and the results were read in a 96-well format plate reader by measuring absorbance at 490 nm. For the thymidine incorporation assay, cells were labeled with [methyl-^3H]-thymidine (PerkinElmer Life Sciences, Boston, Mass.) for 5 hours. Cells were then harvested onto glass-fiber filter membranes and counted in a Wallac 1205 Betaplate liquid scintillation counter. Effect of each drug treatment was calculated as a percentage of control cell growth obtained from vehicle-treated cells grown in the same plate.

[4] = tested on: A549 (human non-small cell lung cancer); experiment: MTS cell proliferation assay, A549; assay type: cell-based; conditions: three days of treatment
Procedure: as §1

[5] = tested on: A549 (human non-small cell lung cancer); experiment: Thymidine incorporation proliferation assay, A549; assay type: cell-based; conditions: three days of treatment
Procedure: as §1

[6] = tested on: H-157; experiment: Thymidine incorporation proliferation assay, H-157; assay type: cell-based, human; conditions: three days of treatment
Procedure: as §1

[7] = tested on: U87MG glioblastoma; conditions: for Tumor Volume t/c, day 0 / Tumor Volume, mean, day 0 / Tumor Volume t/c, day 4 / Tumor Volume, mean, day 4 / Tumor Volume t/c, day 7 / Tumor Volume, mean, day 7 / Tumor Volume t/c, day 11 / Tumor Volume, mean, day 11 / Tumor Volume t/c, day 14 / Tumor Volume, mean, day 14 / Tumor Volume t/c, day 17 / Tumor Volume, mean, day 17: 0.7 mg/kg IV, d 0-4
Procedure: A tumor cell line for brain tumor, PTEN (−/−) U87MG Glioma was implanted in mice. The mice were dosed IV on days 0-4.
In this experiment, U87MG glioma growing as subcutaneous xenografts in nude mice were staged on day 0, and dosed on days 0-4 at 0.15, 0.5, 1.5, 5 and 15 mg/kg/dose of a wortmannin derivative of this invention.
In the U87MG glioma study shown in FIG. 3, a wortmannin derivative of this invention was dosed IV on days 0-4. Paclitaxel was dosed IP on days 0 and 7. The MTD of paclitaxel is 60 mg/kg/dose following a weekly dosing schedule. Mice were treated with a wortmannin derivative of this invention at 1 mg/kg/dose, paclitaxel at 30 and 60 mg/kg/dose, or treated in combination with a wortmannin derivative of this invention at 1 mg/kg/dose and paclitaxel at 30 mg/kg/dose.
A wortmannin derivative at 1 mg/kg/dose and Peg-rapa at 0.1 mg/kg/dose were dosed IV either alone or in combination on days 0-4.
Balb/c nu/nu (athymic) mice were housed in accordance with Association for Accreditation of Laboratory Animal Care (AALAACC) standards for at least one week prior to their experimental usage. The animals were housed in microisolator cages and handled only in a laminar flow hood. All food and water was autoclaved. Mice were inoculated on the left flank with a volume of 200 μL using a 25-26 gauge sterile needle and syringe with a suspension of cells. The cells were resuspended in full growth media and delivered at 10 million cells per mouse. When the resulting tumors reached the appropriate size for staging, the mice were regrouped to produce equivalent sized groups with n=10. Once staged, the mice were dosed 0.2 cc iv with the water-soluble drug-polymer conjugate II and water-soluble drug-polymer conjugate IV resuspended in sterile, distilled water. Wortmannin and other non-pegylated water-soluble drug-polymer conjugate were prepared 10 mg/ml in Dimethyl sulfoxide (DMSO) and diluted with Phosphate Buffered Saline (PBS) right before injecting into the mouse. Treatment was administered as a daily×5 dosing schedule repeated every 2 weeks until the tumors reach 10% of the animal's weight. The growth of the solid tumor was monitored twice a week for the duration of the experiment. Tumor size was quantitated using sliding vernier calipers and the mass was calculated using the formula […]. Conversion from cubic mm to mg was made assuming unit density. Tumors were not allowed to grow larger than 15% of the mouse's weight, at which point the mouse was euthanized.

| Compound | MTS Assay IC50, H-157 [3] | Tumor Volume t/c, day 0 [7] | Tumor Volume, mean, day 0 [7] | Tumor Volume t/c, day 4 [7] | Tumor Volume, mean, day 4 [7] | Tumor Volume t/c, day 7 [7] | Tumor Volume, mean, day 7 [7] | Tumor Volume t/c, day 11 [7] | Tumor Volume, mean, day 11 [7] | Tumor Volume t/c, day 14 [7] | Tumor Volume, mean, day 14 [7] | Tumor Volume t/c, day 17 [7] | Tumor Volume, mean, day 17 [7] | MTS Assay IC50, A549 [4] | Thymidine Assay IC50, A549 [5] | Thymidine Assay IC50, H-157 [6] | other results |
| --- | --- | --- | --- | --- | --- | --- | --- | --- | --- | --- | --- | --- | --- | --- | --- | --- | --- |
| COCC1OC(=O)c2coc3c2C1(C)C1=C(C3=O)C2CCC(O)C2(C)CC1OC(C)=O (stereo not drawn) [17β-Hydroxywortmannin] |  |  |  |  |  |  |  |  |  |  |  |  |  |  |  |  | antitumor activity in the C3H mammary model ([1]; dose of 0.5 mg/kg): no inhibition; toxicity in the C3H mammary model ([1]; dose of 1.0 mg/kg): toxicity; increase in activity relative to wortmannin ([2]; PI3K): 10 fold; IC50 [2]: 0.5 nM |
| COC[C@H]1OC(=O)c2coc3c2[C@@]1(C)C1=C(C3=O)[C@@H]2CCC(=O)[C@@]2(C)C[C@H]1OC(C)=O [Wortmannin] |  |  |  |  |  |  |  |  |  |  |  |  |  |  |  |  | IC50 ([3]; Homo sapiens, NCI-H157, 72 h): 10 µg/mL (≈ 23.3 µM); IC50 ([4]; Homo sapiens, 72 h): 9 µg/mL (≈ 21 µM); IC50 ([5]; Homo sapiens, 72 h): 2.5 µg/mL (≈ 5.84 µM); IC50 ([6]; Homo sapiens, NCI-H157, 72 h): 3.2 µg/mL (≈ 7.47 µM) |
| CC(=O)O[C@H]1C(=O)[C@@]2(C)[C@H]([C@H](OC(=O)c3ccccc3)[C@]3(O)C[C@H](OC(=O)[C@H](O)[C@@H](NC(=O)c4ccccc4)c4ccccc4)C(C)=C1C3(C)C)[C@]1(OC(C)=O)CO[C@@H]1C[C@@H]2O [paclitaxel, reference compound] |  |  |  |  |  |  |  |  |  |  |  |  |  |  |  |  | MTD of paclitaxel ([7]; mouse, in vivo, ip): 60 mg/kg/dose |
| Conjugate (III) of M-PEG-SH 5000 and 17-dihydro-17-(1-iodoacetyl)-wortmannin [Water-soluble drug-polymer conjugate III] | >3 µg/mL | 1.01 | 137.4 mm^3 | 0.51 | 144.0 mm^3 | 0.37 | 120.2 mm^3 | 0.51 | 300.2 mm^3 | 0.50 | 547.0 mm^3 | 0.44 | 926.8 mm^3 | >3 µg/mL | >3 µg/mL | >3 µg/mL |  |
| Conjugate (IV) of M-PEG-SH 5000 and 11-desacetyl-11-(1-iodoacetyl)-wortmannin [Water-soluble drug-polymer conjugate IV] | >3 µg/mL | 0.97 | 131.0 mm^3 | 0.58 | 165.0 mm^3 | 0.46 | 147.9 mm^3 | 0.60 | 349.0 mm^3 | 0.64 | 707.4 mm^3 | 0.69 | 1454.9 mm^3 | >3 µg/mL | >3 µg/mL | >3 µg/mL |  |
